Experimental data reported in US20250197428A1, “INHIBITORS OF KIF18A AND USES THEREOF” (ACCENT THERAPEUTICS, INC., priority 2022, published 2025).
Read-outs that look alike come from different tables or passages of the source.

Columns and labels:
OVCAR-3 cells = assay: In vitro anti-proliferative activity assay in cancer cell line OVCAR-3 (CellTiter-Glo, 4- or 7-day); format: cell-based; settings: Homo sapiens, read-out: OVCAR-3 cellular antiproliferation assay IC50
[1] = In vivo pharmacokinetic evaluation in mouse; set-up: species or system female balb/c nude mice
[2] = Caco-2 permeation assay, bidirectional permeability; format: in vitro ADME; settings: human, Caco-2, pH 7.4, 5 μM, Papp(B-A)/Papp(A-B)
Method: 1. Caco-2 Permeation Assay: Evaluation of the Bidirectional Permeabilities of Compounds.
Samples were analyzed through LC/MS/MS for estimating the apparent permeability coefficients (Papp) of compounds across Caco-2 cell monolayers. Caco-2 cells (American Type Culture Collection) were incubated and seeded onto HTS Transwell-96 Well Permeable Supports (Corning Corporation) for 14 days using a cell medium consisting of Dulbecco's Modified Eagle's Medium (DMEM) with high glucose and L-glutamine supplemented with 10% FBS, 1× penicillin-streptomycin mixture and 1×non-essential amino acids (NEAA). Cell monolayer integrity was measured using an automated tissue resistance measuring system (World Precision Instruments). Stock solutions of compounds and control compounds in DMSO were diluted with HBSS (10 mM HEPES, pH 7.4) to reach a final concentration of 5 μM with a final concentration of DMSO <0.1%. HBSS was then removed after 30 minutes of preincubation, and 75 μL of test compound was added to the apical compartment of the Transwell insert. The basolateral compartment was filled with 235 μL of HBSS (10 mM HEPES, pH 7.4) containing 2% BSA. Rate of drug transport in the basolateral to apical direction was obtained by adding 235 μL of test compound to the receiver plate wells (basolateral compartment) and filling with 75 μL of HBSS (10 mM HEPES, pH 7.4) containing 2% BSA. Time 0 samples were prepared by transferring 25 μL of 5 μM working solution to wells of the 96-deepwell plate containing 25 μL HBSS (10 mM HEPES and 2% BSA, pH 7.4), followed by the addition 200 μL of cold methanol containing appropriate internal standards (100 nM alprazolam, 200 nM labetalol, 200 nM caffeine and 200 nM diclofenac). After incubating at 37° C. for 2 h, 25 μL samples from donor sides (apical compartment) were transferred to a 96-well plate containing 25 μL HBSS (10 mM HEPES and 2% BSA, pH 7.4). 25 μL samples from receiver sides (basolateral compartment) were removed and transferred to a new plate containing 25 μL HBSS (10 mM HEPES, pH 7.4). 200 μL of cold methanol containing internal standards (100 nM alprazolam, 200 nM labetalol, 200 nM caffeine and 200 nM diclofenac) was added to terminate the reaction. Samples were vortexed for 5 minutes and then centrifuged at 3,220 g for 40 minutes. An aliquot of 100 μL of the supernatant is mixed with 100 μL of ultra-pure water for LC-MS/MS analysis. All incubations are performed in duplicate. Solutions were discarded from the transwell plate. 100 μL Lucifer Yellow solution (100 μM in HBSS) was added to each well of transwell insert and 300 μL of HBSS to each well of receiver. After incubating at 37° C. for 30 minutes, 80 μL was aliquotted from each well of apical and basolateral sides to a solid black plate. The plate was then read with Tecan Infinite™ M 200 (Excitation/Emission wavelength […]).
All calculations were carried out using Microsoft Excel. Peak areas were determined from extracted ion chromatograms. The leakage of Lucifer Yellow, in unit of percentage (%), can be calculated using the following equation: […]
LY leakage of <1% is acceptable to indicate the well-qualified Caco-2 monolayers. The apparent permeability coefficient (Papp), in units of centimeter per second, can be calculated for Caco-2 drug transport assays using the following equation: […]
Where VA is the volume (in mL) in the receiver well (0.235 mL for Ap→Bl flux and 0.075 mL for Bl→Ap flux), Area is the surface area of the membrane (0.143 cm^2 for HTS Transwell-96 Well Permeable Supports), and time is the total transport time in seconds. The efflux ratio can be determined using the following equation: […]
Where Papp (B-A) indicates the apparent permeability coefficient in basolateral to apical direction, and Papp (A-B) indicates the apparent permeability coefficient in apical to basolateral direction.
The recovery can be determined using the following equation: […]

KIF18A = KIF18A (Homo sapiens (Human), UniProt Q8NI77); assay: KIF18A Biochemical Assay (ATPase, ADP-Glo)
Chain of KIF18A (Q8NI77 1-367): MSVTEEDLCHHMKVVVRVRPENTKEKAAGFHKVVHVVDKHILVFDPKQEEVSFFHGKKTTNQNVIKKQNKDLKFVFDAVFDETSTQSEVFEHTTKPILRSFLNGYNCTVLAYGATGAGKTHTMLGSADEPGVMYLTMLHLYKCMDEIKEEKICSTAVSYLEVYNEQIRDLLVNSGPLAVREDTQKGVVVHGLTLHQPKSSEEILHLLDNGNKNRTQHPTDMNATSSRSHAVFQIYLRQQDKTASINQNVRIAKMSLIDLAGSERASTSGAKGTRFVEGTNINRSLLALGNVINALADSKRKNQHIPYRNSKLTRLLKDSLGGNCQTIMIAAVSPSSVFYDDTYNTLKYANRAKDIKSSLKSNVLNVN
Chain of KIF18A (P02550 whole entry partner): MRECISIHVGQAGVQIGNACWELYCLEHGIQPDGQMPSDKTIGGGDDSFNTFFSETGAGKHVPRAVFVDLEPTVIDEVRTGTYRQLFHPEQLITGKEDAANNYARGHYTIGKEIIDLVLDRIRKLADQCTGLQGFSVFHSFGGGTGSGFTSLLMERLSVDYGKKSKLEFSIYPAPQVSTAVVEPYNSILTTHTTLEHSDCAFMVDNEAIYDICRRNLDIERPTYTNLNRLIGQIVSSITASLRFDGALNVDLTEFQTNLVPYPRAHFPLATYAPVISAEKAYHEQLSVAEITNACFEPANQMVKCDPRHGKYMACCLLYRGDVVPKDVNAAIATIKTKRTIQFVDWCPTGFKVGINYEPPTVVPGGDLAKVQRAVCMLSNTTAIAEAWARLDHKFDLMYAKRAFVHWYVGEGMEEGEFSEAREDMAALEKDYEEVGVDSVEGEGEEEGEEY
Chain of KIF18A (P02554 whole entry partner): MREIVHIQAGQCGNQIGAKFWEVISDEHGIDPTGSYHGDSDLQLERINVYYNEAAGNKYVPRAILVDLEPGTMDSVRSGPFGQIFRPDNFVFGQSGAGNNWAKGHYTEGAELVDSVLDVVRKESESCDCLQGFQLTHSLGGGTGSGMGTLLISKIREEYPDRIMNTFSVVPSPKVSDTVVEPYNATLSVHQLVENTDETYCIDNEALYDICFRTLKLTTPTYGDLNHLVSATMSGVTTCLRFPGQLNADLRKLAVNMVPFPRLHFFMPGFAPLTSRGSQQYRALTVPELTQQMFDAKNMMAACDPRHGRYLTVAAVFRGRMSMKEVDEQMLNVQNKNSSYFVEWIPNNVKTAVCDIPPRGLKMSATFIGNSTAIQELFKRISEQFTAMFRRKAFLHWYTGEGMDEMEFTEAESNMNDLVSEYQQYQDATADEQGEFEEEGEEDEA

Compound | IC50 (OVCAR-3 cells; OVCAR-3, 168 h, 7-day assay) | IV Clearance ([1]; 3 mg/kg IV) | Vd ([1]; female, balb/c nude, plasma, 3 mg/kg IV, read-out: IV Vss) | Cmax ([1]; female, balb/c nude, plasma, 10 mg/kg PO) | half-life ([1]; female, balb/c nude, plasma, 10 mg/kg PO, read-out: PO T1/2 (converted)) | efflux ratio at 2 h, 5 μM [2] | IC50 (KIF18A) | IC50 (OVCAR-3 cells; OVCAR-3, 96 h, 4-day assay)
Cc1cc(NC(=O)c2ccc(NS(=O)(=O)CCO)cc2N2CC[C@@]3(F)CC[C@H]3C2)nc(N2CCC(F)(F)CC2)n1 (single isomer, unassigned) [Example 50b] | 100 to 500 nM | 0.74 mL/ming/kg | 0.51 L/kg | 10100 ng/mL | 10.6 h | < 10 | < 100 nM | 
Cc1cc(NC(=O)c2ccc(NS(=O)(=O)CCO)cc2N2CC[C@]3(C(F)F)C[C@@H]3C2)nc(N2CCC(F)(F)CC2)n1 [Example 58] | < 100 nM |  |  |  |  | ≥ 10 | < 100 nM | 
O=C(Nc1ccnc(N2CCC(F)(F)CC2)n1)c1ccc(NS(=O)(=O)CCO)cc1N1CC[C@]2(C(F)F)C[C@@H]2C1 [Example 60] | < 100 nM |  |  |  |  | ≥ 10 | < 100 nM | 
O=C(Nc1cccc(N2CCC(F)(F)CC2)n1)c1ccc(NS(=O)(=O)CCO)cc1N1CC[C@@]2(C(F)F)C[C@H]2C1 [Example 66] | < 100 nM |  |  |  |  | < 10 | < 100 nM | 
O=C(Nc1ccnc(N2CCC(F)(F)CC2)n1)c1c(F)cc(NS(=O)(=O)CCO)cc1N1CC[C@@]2(C(F)F)C[C@H]2C1 [Example 70] | < 100 nM |  |  |  |  | ≥ 10 | < 100 nM | 
Cc1cc(NC(=O)c2c(F)cc(NS(=O)(=O)CCO)cc2N2CC[C@@]3(C(F)F)C[C@H]3C2)nc(N2CCC(F)(F)CC2)n1 [Example 72] | 100 to 500 nM |  |  |  |  | ≥ 10 | < 100 nM | 
O=C(Nc1ccnc(C2CCC(F)(F)CC2)n1)c1ccc(NS(=O)(=O)CCO)cc1N1CC[C@]2(C(F)F)C[C@@H]2C1 [Example 75] | < 100 nM |  |  |  |  | < 10 | < 100 nM | 
Cc1cc(NC(=O)c2ccc(S(=O)(=O)NCCO)cc2N2CC[C@@]3(C(F)F)C[C@H]3C2)nc(N2CCC(F)(F)CC2)n1 [Example 78] | 100 to 500 nM |  |  |  |  | < 10 | < 100 nM | 
O=C(Nc1cccc(N2CCC(F)(F)CC2)n1)c1c(F)cc(NS(=O)(=O)CCO)cc1N1CC[C@@]2(C(F)F)C[C@H]2C1 [Example 84] | 100 to 500 nM |  |  |  |  | < 10 | < 100 nM | 
C[Si]1(C)CCN(c2cc(NS(=O)(=O)CCO)ccc2NC(=O)c2ccnc(OCCC(F)(F)F)n2)CC1 [Example 88] | 500 to 1000 nM |  |  |  |  | < 10 | 100 to 500 nM | 
CC(C)(C)NS(=O)(=O)c1cccc(NC(=O)c2ccc(NS(=O)(=O)CCO)cc2N2CC[Si](C)(C)CC2)n1 [Example 98] |  |  |  |  |  | < 10 | < 100 nM | < 100 nM
C[Si]1(C)CCN(c2cc(NS(=O)(=O)CCN)ccc2C(=O)Nc2cccc(N3CCC(F)(F)CC3)n2)CC1 [Example 100] | 100 to 500 nM |  |  |  |  | < 10 | < 100 nM | 
Cc1cc(NC(=O)c2ccc(NS(=O)(=O)CCO)cc2N2CC[Si](C)(C)CC2)nc(N2CCOC3(CC3)C2)n1 [Example 102] | < 100 nM |  |  |  |  | ≥ 10 | < 100 nM | 
CC(=O)NCCS(=O)(=O)Nc1ccc(C(=O)Nc2cccc(N3CCC(F)(F)CC3)n2)c(N2CC[Si](C)(C)CC2)c1 [Example 104] | 100 to 500 nM |  |  |  |  | < 10 | < 100 nM | 
Cc1cc(NC(=O)c2cnc(NS(=O)(=O)CCO)cc2N2CC[Si](C)(C)CC2)nc(N2CCC(F)(F)CC2)n1 [Example 106] | < 100 nM |  |  |  |  | < 10 | < 100 nM | 
C[Si]1(C)CCN(c2cc(NS(=O)(=O)CCO)ccc2C(=O)Nc2cncc(N3CCC(F)(F)CC3)n2)CC1 [Example 108] | < 100 nM |  |  |  |  | < 10 | < 100 nM | 
Cc1cc(NC(=O)c2ccc(NS(=O)(=O)CCO)nc2N2CC[Si](C)(C)CC2)nc(N2CCC(F)(F)CC2)n1 [Example 109] | 500 to 1000 nM |  |  |  |  | < 10 | < 100 nM | 
Cc1cc(NC(=O)c2c(F)cc(NS(=O)(=O)CCO)cc2N2CC[Si](C)(C)CC2)nc(N2CCC(F)(F)CC2)n1 [Example 110] | < 100 nM |  |  |  |  | < 10 | < 100 nM | 
Cc1cc(NC(=O)c2ccc(NS(=O)(=O)[C@H](C)CO)cc2N2CC[Si](C)(C)CC2)nc(N2CCC(F)(F)CC2)n1 [Example 111] | < 100 nM |  |  |  |  | ≥ 10 | < 100 nM | 
Cc1cc(NC(=O)c2ccc(NS(=O)(=O)[C@@H](C)CO)cc2N2CC[Si](C)(C)CC2)nc(N2CCC(F)(F)CC2)n1 [Example 112] | 100 to 500 nM |  |  |  |  | ≥ 10 | < 100 nM | 
CC(CO)S(=O)(=O)Nc1ccc(C(=O)Nc2cccc(OCCC(F)(F)F)n2)c(N2CC[Si](C)(C)CC2)c1 (stereo not shown) [Example 113] | 100 to 500 nM |  |  |  |  | < 10 | < 100 nM | 
Cc1cc(NC(=O)c2ccc(NS(=O)(=O)CCO)cc2N2CC[Si](C)(C)CC2)nc(N2CCOC(F)(F)C2)n1 [Example 115] | 100 to 500 nM |  |  |  |  | ≥ 10 | < 100 nM | 
Cc1cc(NC(=O)c2ccc(NS(=O)(=O)NCCO)cc2N2CC[Si](C)(C)CC2)nc(N2CCC(F)(F)CC2)n1 [Example 117] | 100 to 500 nM |  |  |  |  | < 10 | 100 to 500 nM | 
CNS(=O)(=O)Nc1ccc(C(=O)Nc2cc(C)nc(C3CCC(F)(F)CC3)n2)c(N2CC[Si](C)(C)CC2)c1 [Example 118] | 100 to 500 nM |  |  |  |  | < 10 | < 100 nM | 
C[Si]1(C)CCN(c2cc(NS(=O)(=O)CCO)ccc2C(=O)Nc2cccc(OCC(O)C(F)(F)F)n2)CC1 (stereo not shown) [Example 119] | < 100 nM |  |  |  |  | < 10 | < 100 nM | 
C[Si]1(C)CCN(c2cc(S(=N)(=O)C3CC3)ccc2C(=O)Nc2cccc(N3CCC(F)(F)CC3)n2)CC1 (stereo not shown) [Example 120] | < 100 nM |  |  |  |  | < 10 | < 100 nM | 
C[Si]1(C)CCN(c2cc(NS(=O)(=O)CCO)ccc2C(=O)Nc2cccc(OC[C@@H](O)C(F)(F)F)n2)CC1 [Example 121] | < 100 nM |  |  |  |  | < 10 | < 100 nM | 
C[Si]1(C)CCN(c2cc(NS(C)(=O)=O)ccc2C(=O)Nc2cccc(OC[C@@H](O)C(F)(F)F)n2)CC1 [Example 127] | < 100 nM |  |  |  |  | < 10 | < 100 nM | 
Cc1cc(NC(=O)c2ccc(NS(=O)(=O)N(C)CCO)cc2N2CC[Si](C)(C)CC2)nc(N2CCC(F)(F)CC2)n1 [Example 134] | 100 to 500 nM |  |  |  |  | < 10 | < 100 nM | 
